Measured values reported in patent publication US20250074934A1, “CRYSTAL OF 4’-SUBSTITUTED NUCLEOSIDE, AND PREPARATION METHOD THEREFOR, COMPOSITION THEREOF AND USE THEREOF” (HENAN GENUINE BIOTECH CO., LTD., priority 2022, published 2025).

Legend:
HIV = details: cited from earlier work; for EC50: read-out: HIV inhibitory activity EC50
[1] = within the tested dose range; read-out: cytotoxicity CC50; cited from earlier work
[2] = stability of crystal forms on storage, drying or heating, checked by XRPD; assay type: physicochemical
Description: The type XVI crystal was heated to 55° C. in a nitrogen atmosphere and held for 2 to 24 h.
The type XVI crystal and the type XVII crystal were left at 60±5° C. for 5 days, respectively.
The type XVII crystal was left for 5 days under the conditions of 25° C. and 92.5±5% humidity.
The type XVIII crystal was heated to 150° C. or left for 24 h under the conditions of 25° C. and 92.5±5% humidity.
The crystal suffered from a weight loss of 13.2% when heated to 110° C., and a weight loss of 3.5% when further heated to 200° C. Three endothermic signals occurred in the range of 80° C. to 140° C. The type I crystal was heated to 55° C. under nitrogen protection and then cooled to room temperature. The sample was removed and exposed to air to test XRPD.
As the type II crystal was unstable and had been transformed after dying for a short period of time, no further studies were carried out on the type II crystal.
Under the conditions of nitrogen protection, the type IV crystal was heated to 141° C. and then tested for XRPD.
The type V crystal was subjected to the variable-temperature XRPD test.
The type VI crystal was heated to 160° C. under the nitrogen protection.
Under the nitrogen protection, the type VII crystal was heated to 130° C. and then cooled to room temperature. The sample was removed and exposed to the air to test XRPD.
Under the nitrogen protection, the type VIII crystal was heated to 160° C. and then cooled to room temperature. The sample was removed and exposed to the air to test XRPD.
The crystal was heated to 95° C. under nitrogen protection and then cooled to room temperature. The sample was removed and exposed to the air to test XRPD. […] The crystal was heated to 160° C. under the same conditions of nitrogen protection and then cooled to room temperature. The sample was removed and exposed to the air to test XRPD.
The type X crystal was subjected to the variable-temperature XRPD test.
The samples open dried at room temperature were characterized by TGA/DSC.
Meanwhile, the type XIII crystal was coated to test XRPD, and new type XIV crystal could be observed.

[3] = LC-MS detection of chemical changes in the crystal; assay type: physicochemical; details: obtained from type XVI crystal left at 60° C. for 5 days
Description: The type XVI crystal was left at 60° C. for 5 days to obtain a type XVIII crystal, which was an anhydrous crystal.

[4] = heated to 160° C. under nitrogen protection

## C#C[C@]1(CO)O[C@@H](n2cnc3c(N)nc(F)nc32)C[C@@H]1O [Compound 1]
HIV
  EC50: 0.05 nM
HIV; versus 4′-ethynyl-2′-deoxyadenosine (EdA)
  increase of HIV inhibitory activity by introduction of 2-fluorine: 2200 times

## C#C[C@]1(CO)O[C@@H](n2cnc3c(N)ncnc32)C[C@@H]1O [EdA, 4′-ethynyl-2′-deoxyadenosine]
HIV
  EC50: 11 nM

## C#C[C@]1(CO)O[C@@H](n2cnc3c(N)nc(F)nc32)[C@@H](F)[C@@H]1O [compound (3), (2R,3R,4S,5R)-5-(6-amino-2-fluoro-9H-purin-9-yl)-2-ethynyl-4-fluoro-2-(hydroxymethyl)tetrahydrofuran-3-ol]
[1]
  CC50: > 8000 nM
HIV
  EC50: 0.9 nM

## C#C[C@]1(CO)O[C@@H](n2cnc3c(N)nc(F)nc32)[C@@H](F)[C@@H]1O [type I crystal]
[2]; heated to 55° C. under nitrogen, cooled to room temperature, exposed to air
  XRPD after heating: diffraction peak intensity of the sample was somewhat decreased
[2]; heated to 100° C. under nitrogen protection
  XRPD after heating: transformed into an amorphous crystal

## C#C[C@]1(CO)O[C@@H](n2cnc3c(N)nc(F)nc32)[C@@H](F)[C@@H]1O [type II crystal]
[2]; vacuum drying at room temperature for half an hour
  crystal form after vacuum drying: transformed into a type III crystal

## C#C[C@]1(CO)O[C@@H](n2cnc3c(N)nc(F)nc32)[C@@H](F)[C@@H]1O [type IV crystal]
[2]; 120° C.
  stability by TGA: unstable
[2]; dried crystal left closed at room temperature for about 5 days
  XRPD of dried crystal after closed storage: increased relative intensity of the diffraction peaks and increased number of diffraction peaks
[2]; heated to 141° C. under nitrogen protection
  XRPD after heating: transformed into a stable type III crystal
[2]; vacuum dried at room temperature for 15 min
  XRPD after vacuum drying: decreased relative intensity of the diffraction peaks

## C#C[C@]1(CO)O[C@@H](n2cnc3c(N)nc(F)nc32)[C@@H](F)[C@@H]1O [type IX crystal]
[2]; heated to 95° C. under nitrogen, cooled to room temperature, exposed to air
  XRPD after heating: degree of crystallinity was further decreased
[2]; [4]
  XRPD after heating: crystal form had been transformed
[2]; left closed at room temperature for about 3 days
  crystallinity after closed storage: reduced degree of crystallinity

## C#C[C@]1(CO)O[C@@H](n2cnc3c(N)nc(F)nc32)[C@@H](F)[C@@H]1O [type V crystal]
[2]; further heated to 154° C.
  variable-temperature XRPD: transformed into another crystal
[2]; heated to 90° C. and 130° C. under nitrogen
  variable-temperature XRPD: substantially transformed into an amorphous crystal
[2]; purged with nitrogen for about 20 min
  variable-temperature XRPD, nitrogen purge: significant decrease in degree of crystallinity

## C#C[C@]1(CO)O[C@@H](n2cnc3c(N)nc(F)nc32)[C@@H](F)[C@@H]1O [type VI crystal]
[2]; [4]
  XRPD after heating: crystal form was transformed

## C#C[C@]1(CO)O[C@@H](n2cnc3c(N)nc(F)nc32)[C@@H](F)[C@@H]1O [type VII crystal]
[2]; heated to 130° C. under nitrogen, cooled to room temperature, exposed to air
  XRPD after heating: crystal form was transformed

## C#C[C@]1(CO)O[C@@H](n2cnc3c(N)nc(F)nc32)[C@@H](F)[C@@H]1O [type X crystal]
[2]; further heated to 130° C.
  variable-temperature XRPD: diffraction peak intensity was significantly reduced
[2]; further heated to 145° C.
  variable-temperature XRPD: crystal form was transformed
[2]; heated to 120° C. while purging with nitrogen
  variable-temperature XRPD: position of the diffraction peak shifted

## C#C[C@]1(CO)O[C@@H](n2cnc3c(N)nc(F)nc32)[C@@H](F)[C@@H]1O [type XII crystal]
[2]; vacuum drying at room temperature for 10 min
  crystal form after vacuum drying: transformed into an amorphous crystal

## C#C[C@]1(CO)O[C@@H](n2cnc3c(N)nc(F)nc32)[C@@H](F)[C@@H]1O [type XIII crystal]
[2]; left in a solvent environment at room temperature
  crystal form in solvent environment: transformed into the type XIV crystal
[2]; open dried at room temperature for about 2 h
  crystal form after open drying: crystal form was transformed

## C#C[C@]1(CO)O[C@@H](n2cnc3c(N)nc(F)nc32)[C@@H](F)[C@@H]1O [type XIV crystal]
[2]; removed from the solvent environment
  crystal form after removal from solvent: transformed into the type XIII crystal

## C#C[C@]1(CO)O[C@@H](n2cnc3c(N)nc(F)nc32)[C@@H](F)[C@@H]1O [type XV crystal]
[2]; heated to 120° C.
  crystal form after heating: crystal form was transformed

## C#C[C@]1(CO)O[C@@H](n2cnc3c(N)nc(F)nc32)[C@@H](F)[C@@H]1O [type XVI crystal]
[2]; heated to 55° C. in nitrogen atmosphere, held 2 to 24 h
  crystal form by XRPD after heating: type XVII crystal was also obtained
[2]; left at 60±5° C. for 5 days
  crystal form by XRPD after storage: transformed into the type XVIII crystals
[2]; vacuum drying at room temperature for 24 h
  crystal form after vacuum drying: transformed into a monohydrate crystal form—type XVII crystal

## C#C[C@]1(CO)O[C@@H](n2cnc3c(N)nc(F)nc32)[C@@H](F)[C@@H]1O [type XVII crystal]
[2]; dried at 90° C. for 1 to 24 h
  crystal form after drying: obtain the type XVIII crystal
[2]; left for 5 days at 25° C. and 92.5±5% humidity
  crystal form by XRPD after storage: type XVI crystal was obtained

## C#C[C@]1(CO)O[C@@H](n2cnc3c(N)nc(F)nc32)[C@@H](F)[C@@H]1O [type XVIII crystal]
[3]
  chemical changes by LC-MS: did not undergo chemical changes
[2]; heated to 150° C.
  crystal form by XRPD after heating: crystal form did not change
[2]; left for 24 h at 25° C. and 92.5±5% humidity
  crystal form by XRPD after storage: crystal form did not change
